The text below walks through data of patent publication US20240269094A1, “Treatment of canine dermatitis and skin irritation” (priority 2023, published 2024).

As a reminder, the EC50 is the concentration giving half of the maximal effect.

For one test, the target named is T1, TRPA1 (Homo sapiens, UniProt O75762).
T1 construct: expressed in transfected cells
Description: Bioassay in cells transfected with TRPA1 (FIG. 4). Type of test: cell-based. The text has this:
FIG. 4 Bioassay of FEMA 4557 (labeled as BUDA on the graph) in TRPM8 and TRPA1. Data from the laboratory of Prof. Seok-Yong Lee at Duke University.
FIG. 4 Bioassay of FEMA 4557 (labeled as BUDA) in TRPM8 and TRPA1. Data of Prof. Seok-Yong Lee at Duke University.

A further test has as its system tongue. Description: Oral cavity screen: 15 mg of crystals on the dorsal surface of the tongue. Type of test: in vivo, human. How it is done:
In this discovery, sensory activity in the oral cavity was the first screen. The goal was to identify candidates producing unusual sensations. Test agents, prepared as 15 mg of white crystals, were placed on the dorsal surface of the tongue. The chemical structures and identifying characteristics are in Table 1. […] Related cooling agents were not freezing cold, except for WS-23.

The target in test [1] is T2, TRPM8 (Rattus norvegicus, UniProt Q8R455). More on the design: EC50; other: Sherkheli, 196/1500. As to conditions: Ref. 4 (Sherkheli et al., 2010); cited from earlier work.
Test [2] addresses T3, TRPM8 (Mus musculus, UniProt Q8R4D5). More on the design: EC50. Conditions: Ref. 3 (Bodding et al., 2007); cited from earlier work.
Test [3] has as its target T3, TRPM8. As to conditions: Ref. 2 (Behrendt et al., 2004); cited from earlier work.
The subject of another test is philtrum skin. Description: Philtrum (skin) bioassay of cooling. Type of test: in vivo, human. As to conditions: for Duration-Skin: Wei, Table 6, see FIG. 6; for Comments: quality of sensation on philtrum skin: 8% wt/vol; for Duration of cooling: 8% wt/vol on philtrum. How it is done: FIG. 5. The philtrum bioassay. Cooling agents, prepared as a or in solution are applied to the philtrum skin. Cooling intensity is rated on a scale of 0 to 3, with 0=no changes in sensation, 1=a slight feeling of coolness, cold or tingling, 2=a clearcut feeling of coolness of cold, and 3=a robust feeling of coolness of cold. The duration of cooling was recorded until two zeroes were measured 10 min apart.
TRPM8 EC50 Receptor Assay. […] A receptor assay is a standard tool and can be done quickly. For example, in a 384-plate assay, you can easily test 10 compounds and get dose-response data. For a chemical agonist, an in vitro TRPM8 assay generates an EC50 (median effective concentration). But the quantitative correlation between the EC50 on TRPM8 and cooling sensation was vague. That is, the science was “roughly” predictive, but there was considerable uncertainty for each agonist. […] Philtrum (Skin) Assay. For cooling sensations on the skin, it is necessary to test the substance on the skin. Wei proposed the use of the skin on the philtrum as a test site for cooling activity of chemicals (FIG. 5). The test substance is dissolved in a carrier, such as solvent, gel, or ointment and applied to the philtrum, a surface area of […]. The subject records sensations on the philtrum and environs as:
The subject is given a form to record observations and instructions to mark sensations on the philtrum and environs as: 0=no changes in sensation, 1=a slight feeling of coolness, cold, or tingling, 2=a clearcut feeling of coolness or cold, and 3=a robust feeling of coolness and cold.
The intervals for measurements are usually at 5, to 15 min after application, until two successive zeros are obtained. The philtrum application site is the midline groove above the upper lip border and vermilion. The gel is placed on the philtrum with a cotton-tipped applicator up to the nasolabial folds and sometimes, but not deliberately, on the lower nostrils (subnasale). Cold receptors densely innervate the philtrum skin (FIG. 5), second only to the surfaces of the eyeball and anogenitalia. The lips also have a high density of “cold spots.” Hensel et al. mapped the cold spots on the human face (cited in Dhaka et al., 2008). In animals such as the rat the mystacial pad (nose pad with vibrissae) is abundantly labeled with TRPM8-fibers. “Cold Points” linked to single-unit neuronal discharges can be measured in experimental animals. Wei has direct experience in such experiments (Poree et al., 1989).
Dip a cotton-tipped applicator (Puritan Cotton-tipped applicators, or Q-Tips) into a reservoir bottle containing the liquid or semi-liquid (gel) test substance. The composition adhering to the cotton (about 0.1 mL) is put on the skin. The philtrum site is shown in a cartoon. A subject can practice the method in front of a mirror with a high-intensity light source. Results for test on the philtrum are in Table 8 and FIG. 5. See data in FIG. 6. Cooling agents, prepared as an 8% wt./vol. gel, was tested topically on the philtrum skin assay. The duration of cooling was recorded (min on y-axis). The startling activity of FEMA 4557, cooling for ˜3 hr, was unexpected and surprising. FEMA 3784 is also known as Cool 10 or menthoxypropanediol. […]

In the next test the test system is oral cavity. As to conditions: 100 ppm in 5% sucrose; scale of 0 to 9 units; Johnson, 2018; cited from earlier work.
The target in test [4] is TRPM8 (Homo sapiens, UniProt Q7Z2W7). Details: EC50; other: Johnson, 2.2/2.2. As to conditions: Ref. 5 (Johnson et al., 2018); cited from earlier work.
Test [5] deals with canine dermatitis, scratching and licking. Description: Topical treatment of canine skin irritation (case studies). It counts as in vivo, dog. Conditions: Study 3, repeated bathing. How it is done: The Applicant gave the dog's owner an airless pump dispenser containing 8% wt/vol of FEMA 4557 dispersed in 4 mg/ml of carbapol 980, formulated with 1% ethanol and 1% menthol, and instructed him to apply the gel to the skin of the dog's belly and groin.
A twelve-year-old West Highland Terrier had periodic episodes of seasonal skin allergy. […] The owner of the dog, who had access to a pharmacy, applied nystatin ointment and a potent skin steroid cream containing […].
Next, a 20% wt/vol FEMA 4557 solution, dissolved in propylene glycol, was applied to the interdigital folds of the paws with a cotton-tipped applicator (FIG. 9).

For test [6], the target named is T2, TRPM8. As to conditions: Ref. 1 column (McKemy et al., 2002); cited from earlier work.
The subject of another test is canine atopic dermatitis. As to conditions: cited from earlier work.

Each structure is given as a SMILES string. Where two headings read alike, the source gives them in different places.

T3 sequence (Q8R4D5 whole entry): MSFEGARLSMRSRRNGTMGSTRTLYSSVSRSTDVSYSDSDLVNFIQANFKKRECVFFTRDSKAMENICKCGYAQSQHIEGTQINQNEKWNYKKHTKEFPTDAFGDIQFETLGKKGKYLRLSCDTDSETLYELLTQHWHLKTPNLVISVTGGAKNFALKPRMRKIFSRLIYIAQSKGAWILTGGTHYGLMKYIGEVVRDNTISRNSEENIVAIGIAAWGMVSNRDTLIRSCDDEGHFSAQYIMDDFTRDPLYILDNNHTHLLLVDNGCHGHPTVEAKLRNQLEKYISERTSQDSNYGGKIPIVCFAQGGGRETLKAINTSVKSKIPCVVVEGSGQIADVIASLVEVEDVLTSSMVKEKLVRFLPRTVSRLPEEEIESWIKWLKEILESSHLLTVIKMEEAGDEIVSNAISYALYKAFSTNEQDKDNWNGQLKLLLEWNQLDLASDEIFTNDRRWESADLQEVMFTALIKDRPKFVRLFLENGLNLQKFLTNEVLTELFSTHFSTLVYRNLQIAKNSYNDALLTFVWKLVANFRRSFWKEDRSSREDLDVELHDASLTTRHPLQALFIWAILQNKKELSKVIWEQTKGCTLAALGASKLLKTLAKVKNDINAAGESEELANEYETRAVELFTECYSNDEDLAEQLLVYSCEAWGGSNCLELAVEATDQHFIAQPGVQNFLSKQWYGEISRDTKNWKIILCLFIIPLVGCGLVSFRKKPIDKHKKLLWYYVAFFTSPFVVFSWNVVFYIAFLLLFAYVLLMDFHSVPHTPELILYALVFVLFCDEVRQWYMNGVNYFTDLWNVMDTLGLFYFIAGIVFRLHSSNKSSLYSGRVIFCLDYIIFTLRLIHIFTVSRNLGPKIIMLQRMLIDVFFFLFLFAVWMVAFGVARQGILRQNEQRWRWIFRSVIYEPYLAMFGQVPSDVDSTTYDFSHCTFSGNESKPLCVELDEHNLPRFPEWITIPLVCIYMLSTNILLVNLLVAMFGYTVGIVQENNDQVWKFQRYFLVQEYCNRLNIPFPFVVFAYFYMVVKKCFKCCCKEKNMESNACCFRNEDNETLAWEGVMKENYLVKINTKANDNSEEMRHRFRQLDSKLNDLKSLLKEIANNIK
T2 sequence (Q8R455 whole entry): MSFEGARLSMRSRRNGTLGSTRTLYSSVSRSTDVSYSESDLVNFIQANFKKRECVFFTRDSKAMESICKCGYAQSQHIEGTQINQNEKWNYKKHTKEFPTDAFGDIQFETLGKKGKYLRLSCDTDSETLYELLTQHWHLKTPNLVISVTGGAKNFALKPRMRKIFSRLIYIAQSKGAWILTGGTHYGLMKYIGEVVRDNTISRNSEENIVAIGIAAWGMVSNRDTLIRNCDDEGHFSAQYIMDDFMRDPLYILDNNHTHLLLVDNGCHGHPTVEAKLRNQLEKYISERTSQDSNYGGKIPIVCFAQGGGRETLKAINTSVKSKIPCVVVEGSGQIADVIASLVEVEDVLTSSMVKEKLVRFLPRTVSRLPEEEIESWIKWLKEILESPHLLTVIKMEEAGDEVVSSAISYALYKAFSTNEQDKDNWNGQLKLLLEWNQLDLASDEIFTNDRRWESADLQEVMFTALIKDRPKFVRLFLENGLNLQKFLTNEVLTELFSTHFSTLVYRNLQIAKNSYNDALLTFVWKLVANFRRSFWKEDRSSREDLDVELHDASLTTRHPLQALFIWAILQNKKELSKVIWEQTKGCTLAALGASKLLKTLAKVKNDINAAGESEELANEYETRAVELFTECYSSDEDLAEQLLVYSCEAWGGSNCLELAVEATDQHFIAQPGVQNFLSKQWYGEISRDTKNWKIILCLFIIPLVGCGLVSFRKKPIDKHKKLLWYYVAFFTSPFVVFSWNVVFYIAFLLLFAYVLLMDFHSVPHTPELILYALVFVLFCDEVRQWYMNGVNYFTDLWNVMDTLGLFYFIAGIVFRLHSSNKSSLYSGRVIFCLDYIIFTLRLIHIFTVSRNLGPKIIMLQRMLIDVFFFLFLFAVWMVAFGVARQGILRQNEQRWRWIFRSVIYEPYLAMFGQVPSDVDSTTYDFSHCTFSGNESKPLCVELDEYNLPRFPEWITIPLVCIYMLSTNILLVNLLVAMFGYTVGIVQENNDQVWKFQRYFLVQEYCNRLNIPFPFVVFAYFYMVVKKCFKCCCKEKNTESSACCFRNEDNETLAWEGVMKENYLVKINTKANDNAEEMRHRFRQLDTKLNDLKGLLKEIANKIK
T1 sequence (O75762 whole entry, species assumed): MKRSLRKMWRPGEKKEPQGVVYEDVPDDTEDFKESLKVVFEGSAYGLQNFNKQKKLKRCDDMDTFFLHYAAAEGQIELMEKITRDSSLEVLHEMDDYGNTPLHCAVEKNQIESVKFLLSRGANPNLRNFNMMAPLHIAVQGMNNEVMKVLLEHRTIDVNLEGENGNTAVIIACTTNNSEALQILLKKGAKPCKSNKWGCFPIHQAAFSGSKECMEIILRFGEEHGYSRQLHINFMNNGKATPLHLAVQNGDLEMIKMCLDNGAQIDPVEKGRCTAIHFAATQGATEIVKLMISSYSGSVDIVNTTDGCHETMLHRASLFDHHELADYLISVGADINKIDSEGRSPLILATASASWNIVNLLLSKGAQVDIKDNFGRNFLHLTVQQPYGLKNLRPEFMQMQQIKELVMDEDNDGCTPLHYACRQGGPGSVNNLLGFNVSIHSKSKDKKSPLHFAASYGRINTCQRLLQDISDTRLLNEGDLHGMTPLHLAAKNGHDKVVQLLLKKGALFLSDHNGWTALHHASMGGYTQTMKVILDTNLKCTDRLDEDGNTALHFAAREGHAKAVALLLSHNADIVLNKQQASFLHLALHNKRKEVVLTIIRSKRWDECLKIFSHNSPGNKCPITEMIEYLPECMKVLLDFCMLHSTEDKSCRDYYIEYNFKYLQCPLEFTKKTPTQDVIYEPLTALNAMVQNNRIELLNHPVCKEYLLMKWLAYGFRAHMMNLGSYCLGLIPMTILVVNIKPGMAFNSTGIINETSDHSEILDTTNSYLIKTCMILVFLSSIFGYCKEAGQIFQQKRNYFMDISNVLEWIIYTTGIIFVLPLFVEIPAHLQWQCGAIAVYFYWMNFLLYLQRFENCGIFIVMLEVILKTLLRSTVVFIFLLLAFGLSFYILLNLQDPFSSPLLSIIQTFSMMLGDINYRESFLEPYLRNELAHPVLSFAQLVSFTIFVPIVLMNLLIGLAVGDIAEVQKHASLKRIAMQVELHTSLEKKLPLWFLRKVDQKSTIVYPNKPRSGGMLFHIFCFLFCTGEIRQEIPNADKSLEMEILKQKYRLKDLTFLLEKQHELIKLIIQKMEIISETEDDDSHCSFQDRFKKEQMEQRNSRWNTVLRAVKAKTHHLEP

For the molecule `C=CCN=C=S` [AITC, allyl isothiocyanate], the “activity on TRPA1” value on TRPA1 is recorded as “active”.

For `CC(C)OC(=O)CNC(=O)[C@@H]1C[C@H](C)CC[C@H]1C(C)C` [Ax-8, p-Menthane-Gly-OiPr], in the test on tongue, the “Effects of 15 mg on tongue: duration” value is given as ~27 min and the “Effects of 15 mg on tongue: sensation” value is “pleasant cooling in oral cavity”.

As for `CCOC(=O)[C@@H](C)NC(=O)[C@@H]1C[C@H](C)CC[C@H]1C(C)C` [CPS-369], the results for the half-maximal effective concentration (EC50) at TRPM8 [1] and at TRPM8 [2] were 65 µM and 3.6 µM, respectively.

With `CC(C)[C@@H]1CC[C@@H](C)C[C@H]1OCC(O)CO` (some centres unmarked) [Cool 10, menthoxypropanediol], the EC50 on TRPM8 [3] was 6 µM.

For the molecule `CCNC(=O)[C@@H]1C[C@H](C)CC[C@H]1C(C)C` [WS-3], the Duration-Skin in the test on philtrum skin came out at 0.3 h. In addition, the values for the EC50 on TRPM8 [1], at TRPM8 [3] and at TRPM8 [4] were 210 µM, 3.7 µM and 5.9 µM, respectively. Also, in the test on oral cavity, the “Cooling Intensity Oral Cavity Scaled” value was 5.2. Also, the “Effects of 15 mg on tongue: duration” value in the test with tongue is reported as ~8 min. For the same molecule, the “Effects of 15 mg on tongue: sensation” value in the test on tongue is listed as “pleasant cooling in oral cavity”.

On to `CCOC(=O)CNC(=O)[C@@H]1C[C@H](C)CC[C@H]1C(C)C` [WS-5], for which, in the test on philtrum skin, the “Comments: quality of sensation on philtrum skin” value is reported as “pleasant cool sensations of skin”, the Duration of cooling worked out at 51 ± 4 min and the Duration-Skin was determined as 0.5 h. At TRPM8 [1], the EC50 was 26 µM. For the same molecule, in the test on oral cavity, the “Cooling Intensity Oral Cavity Scaled” value is given as 6. In the test on tongue, the “Effects of 15 mg on tongue: duration” value was ~12 min and the “Effects of 15 mg on tongue: sensation” value was “pleasant cooling in oral cavity”. In addition, on TRPM8 [4], the EC50 is 0.5 µM.

As for `COc1ccc(NC(=O)[C@@H]2C[C@H](C)CC[C@H]2C(C)C)cc1` [WS-12], in the test on philtrum skin, the “Comments: quality of sensation on philtrum skin” value was “pleasant cool sensations on skin”, the Duration of cooling was determined as 38 ± 4 min and the Duration-Skin turned out to be 0.4 h. Also, the EC50 at TRPM8 [1] is 12 µM. The EC50 at TRPM8 [2] was 0.2 µM. Further, in the test with oral cavity, the “Cooling Intensity Oral Cavity Scaled” value is listed as 3. In the test with tongue, the “Effects of 15 mg on tongue: duration” value is given as ~20 min and the “Effects of 15 mg on tongue: sensation” value was “pleasant cooling in oral cavity”. On TRPM8 [4], the EC50 was 22.1 µM.

`CCCCCCCP(=O)(C(C)CC)C(C)CC` (centres unmarked) [WS-148]: the EC50 on TRPM8 [2] is 4.1 µM.

With `CC(=O)N1CCN(c2ccc(OCC3COC(Cn4ccnc4)(c4ccc(Cl)cc4Cl)O3)cc2)CC1` (centres unmarked) [ketoconazole], in test [5], the “effect of antifungal shampoo on skin irritation” value is “did not make any difference”.

Molecule `CC(C)[C@@H]1CC[C@@H](C)C[C@H]1O` [l-menthol] gave a Duration-Skin with philtrum skin of 0.3 h. In addition, the EC50 was 196 µM on TRPM8 [1], 10.4 µM at TRPM8 [2], 67 µM at TRPM8 [6] and 4.1 µM on TRPM8 [3]. Further, the “Cooling Intensity Oral Cavity Scaled” value in the test on oral cavity is recorded as 5.

With `Clc1ccc(COC(Cn2ccnc2)c2ccc(Cl)cc2Cl)c(Cl)c1` (centres unmarked) [miconazole], the “effect of antifungal shampoo on skin irritation” value in test [5] is given as “did not make any difference”.

For `CNS(=O)(=O)C[C@H]1CC[C@H](N(C)c2ncnc3[nH]ccc23)CC1` [oclacitinib], the “onset of anti-scratching effects” value in the test with canine atopic dermatitis (oral tablet once or twice a day) is on record as “as early as four hours after dosing”. Besides, the Onset in the test with canine atopic dermatitis (oral tablet) was 15 min, hours.
